{
  "source": "patent US8772029B2",
  "about": "“Modulation of oocyte meiotic progression and oocyte activation” (Northwestern University, priority 2011, dated 2014)",
  "key": {"MII eggs": {"tested_on": "MII eggs", "experiment": "Activation of in vivo ovulated MII eggs (SrCl2, TPEN, ZnPT pre-treatment)", "method": "Ovulated MII eggs were collected as described above. Eggs were transferred to KSOM medium with or without 10 μM ZnPT (1:1000 dilution of a 10 mM stock in DMSO) for exactly 5 minutes. Eggs were then washed in KSOM and allowed to recover for 10-15 minutes prior to activation. For SrCl2 activation, eggs were transferred to drops of calcium-free KSOM containing 10 mM SrCl2 for 2 hours, followed by 4 additional hours of culture in calcium-containing KSOM without SrCl2. TPEN activation was performed as previously described (Kim et al., 2011); eggs were cultured for 6 hours in KSOM containing 10 μM TPEN. Unactivated controls were cultured in KSOM for the same 6 hour time period to assess levels of spontaneous parthenogenesis.\nMII eggs were treated with the ionophore zinc pyrithione (ZnPT) for 5 minutes to increase intracellular zinc. Following a 10-15 minute recovery period, eggs were then treated with activating agents SrCl2 or TPEN."}, "[1]": {"tested_on": "zinc-insufficient oocytes", "experiment": "Spindle phenotype scoring after IVM in TPEN with proteasome inhibitor MG132 added after 10 h", "assay_type": "cell-based, mouse", "details": "TPEN 10 h, then TPEN + 20 μM MG132 6 h", "method": "For IVM studies, immature female CD1 mice (17 to 21 day old) were injected with 5IU equine chorionic gonadotropin (eCG) (Calbiochem, La Jolla, CA) in 100 μL sterile phosphate-buffered saline (PBS), intraperitoneally. After 44 to 48 hours, mice were anesthetized using isoflurane and euthanized by cervical dislocation. Dissected ovaries were placed in Leibovitz L-15 medium containing 1% FBS (L-15/FBS) and 0.2mM 3-isobutyl-1-methylxanthine (IBMX), and large antral follicles were punctured using 28 gauge needles to release cumulus oocyte complexes (COCs). COCs were washed through several drops of culture medium consisting of Minimum Essential Medium (MEM)-alpha with GLUTAMAX supplemented with 10% FBS, 1.5IU/mL human chorionic gonadotropin (hCG), and 5ng/mL epidermal growth factor and placed in culture medium with or without 10 μM N,N,N′,N′-tetrakis(2-pyridylmethyl) ethylenediamine (TPEN). In some experiments Z-Leu-Leu-Leu-al (MG132) was added to culture medium at 20 μM. COCs were cultured in drops of pre-equilibrated medium covered with embryo quality mineral oil at 37° C. in 5% CO2 with a humid environment. Ovulated MII eggs were collected from 4 to 6 week old mice primed with 5IU PMSG followed 48 h later by 5IU hCG. Oviducts were dissected into L-15/FBS, and eggs were removed and treated with 0.03% (w/v) hyaluronidase to remove cumulus cells. Eggs were washed and cultured in potassium simplex optimized medium (KSOM) (Millipore, Billerica, MA) covered with embryo quality mineral oil at 37° C. in 5% CO2.\nOocytes were denuded of cumulus cells and fixed in a microtubule stabilizing buffer (Ibanez et al., 2005) containing 2% formaldehyde and 1% Triton X-100 for 30 min at 37° C. Oocytes were washed and blocked in PBS containing 0.1M glycine, 3mg/mL BSA, 0.01% Tween 20, and 0.01% sodium azide for at least 1 h and were stored in blocking solution at 4° C. for up to 2 weeks. Oocytes were incubated with anti-tubulin antibody (1:100) for 1 h at 37C. followed by three washes in blocking solution. They were then incubated for 1 h in AlexaFluor-488 conjugated anti-mouse secondary antibody (5μg/mL) and rhodamine-phalloidin (2U/mL), washed three additional times, and mounted in VECTASHIELD with DAPI. Microscopy was performed using a Leica SP5 inverted laser-scanning confocal microscope with a 63x oil immersion objective (Leica Microsystems, Heidelberg, Germany). Images were processed using LAS AF software (Leica Microsystems).\nIt has been previously shown that zinc-insufficient oocytes fail to increase MPF activity following the first meiotic division and have low CCNB1 protein levels (Bernhardt et al., 2010). In order to determine whether this decrease in CCNB1 is the major cause of the observed meiotic arrest phenotype, it was tested whether increasing CCNB1 would be sufficient to rescue MII entry in zinc-insufficient oocytes by inhibiting the proteasome at the end of the MI-MII transition, thereby halting CCNB1 degradation. Experimental oocytes were cultured for 10 hours in TPEN-containing medium and were then transferred into medium containing TPEN as well as the proteasome inhibitor Z-Leu-Leu-Leu-al (MG132) at 20 μM concentration. MG132 was added after first polar body extrusion, because earlier addition would result in MI arrest due to failure to degrade APC/C targets that prevent cell division. Oocytes were cultured for an additional 6 h in the presence of MG132 to allow time for CCNB1 reaccumulation, for a total 16 h IVM culture period. Proteasome inhibition led to a partial rescue of the zinc insufficiency phenotype. 69% of treated oocytes formed spindle-like structures, and none were in telophase I arrest, despite being cultured in the presence of TPEN for the entire culture period (FIG. 2, A; Table 2).\nA majority of zinc-insufficient oocytes treated with MG132 following the first meiotic division transition progress beyond telophase-I arrest and form MII spindle-like structures. […]"}, "MPF activity": {"tested_on": "MPF activity", "experiment": "Histone H1 kinase assay on single oocytes/eggs (MPF activity)", "assay_type": "cell-based, mouse", "details": "TPEN 10 h, then TPEN + 20 μM MG132 6 h", "method": "Histone H1 and myelin basic protein (MBP) dual kinase assays were performed as previously described (Svoboda et al., 2000). Dried gels were exposed to Kodak BIOMAX MR films for 12 to 72 hours at −80° C. using Kodak intensifying screens; films were developed, scanned, and analyzed using ImageJ software. Assays were performed on single oocytes, and densitometric analysis is expressed relative to levels in control eggs."}, "CCNB1": {"tested_on": "CCNB1", "experiment": "Western blot for CCNB1 in oocytes", "assay_type": "cell-based, mouse", "details": "TPEN 10 h, then TPEN + 20 μM MG132 6 h", "method": "Western blotting was performed essentially as previously described (Bernhardt et al., 2010). Briefly, 15 to 50 cumulus-denuded oocytes were transferred in a minimal amount of medium to microcentrifuge tubes and immediately lysed in 8 μL of 1x SDSPAGE Sample Buffer (Laemmli, 1970). SDS-PAGE gels were run using the Invitrogen NuPAGE system and transferred to Immobilon-P PVDF membranes (Millipore, Billerica, MA). Blocking and antibody incubations were in 2% w/v ECL Advanced Blocking Reagent (Amersham) in TBS-T (20mM Tris, pH7.4, 137mM NaC1, 0.1% Tween20 v/v). Anti-CCNB1antibody was diluted 1:500, anti-FBXO43 was used at 1:1000 dilution, and anti-tubulin antibody was used at 1:10,000. HRP-conjugated secondary antibodies were diluted 1:10,000. Detection was performed using Amersham ECL Advanced detection reagent. BIOMAX MR films (Kodak, Rochester, NY) were exposed and developed, or an Alpha-Innotech (San Learndo, CA) MultiImage II system was used."}},
  "note": "“Also recorded” adds a separate entry of the source. Peptide text beside a SMILES is read from it. * marks the point of attachment. Cbz = O=C(OCc1ccccc1)*",
  "data": [
    {"molecule": "[Cl-].[Cl-].[Sr+2]", "note": "[SrCl2]", "values": [
      {"measurement": "egg activation (second polar body and PN or PN-like structures)", "setting": "MII eggs; control MII eggs, by 6 hours post activation, 10 mM SrCl2 2 h or 10 μM TPEN 6 h", "result": "activated normally"}
    ]},
    {"molecule": "CC(C)C[C@@H](C=O)NC(=O)[C@H](CC(C)C)NC(=O)[C@H](CC(C)C)NC(=O)OCc1ccccc1", "note": "[MG132, Z-Leu-Leu-Leu-al] (Cbz-Leu-Leu-Leu-aldehyde)", "values": [
      {"measurement": "oocytes with some degree of MII spindle formation (spindle-like structures)", "setting": "[1]", "result": 69, "unit": "%"},
      {"measurement": "MII (aligned metaphase plate)", "setting": "[1]; n=26", "result": 19, "unit": "%"},
      {"measurement": "other spindle phenotype", "setting": "[1]; n=26", "result": 15, "unit": "%"},
      {"measurement": "persisting midbody or chromatin mass", "setting": "[1]; n=26", "result": 15, "unit": "%"},
      {"measurement": "spindle with chr. scattered along length", "setting": "[1]; n=26", "result": 19, "unit": "%"},
      {"measurement": "spindle with ≦3 chr. out of place", "setting": "[1]; n=26", "result": 31, "unit": "%"},
      {"measurement": "MPF activity (histone H1 kinase) compared to oocytes cultured with TPEN alone", "setting": "MPF activity", "result": "increased"},
      {"measurement": "CCNB1 protein levels", "setting": "CCNB1", "result": "only partially restores; also recorded: only slightly increased"}
    ]},
    {"molecule": "zinc pyrithione [ZnPT]", "values": [
      {"measurement": "MII spindle organisation after ZnPT", "setting": "MII eggs; 10 μM ZnPT 5 minutes, unactivated eggs and SrCl2-treated eggs, 6 hours of culture", "result": "caused spindle abnormalities"},
      {"measurement": "egg activation by TPEN after ZnPT pre-treatment", "setting": "MII eggs; MII eggs, 10 μM ZnPT 5 minutes, then 10 μM TPEN 6 h", "result": "formed second polar bodies and PN-like structures"},
      {"measurement": "egg activation by SrCl2 after ZnPT pre-treatment", "setting": "MII eggs; MII eggs, 10 μM ZnPT 5 minutes, then 10 mM SrCl2", "result": "did not show signs of activation"}
    ]}
  ]
}
